# Test results reported in patent US9637490B2, “Antifungal 5,6-dihydro-4-[(difluoroethyl)phenyl]-4H-pyrrolo[1,2-α][1,4]benzodiazepine and 4-(difluoroethyl)phenyl-6H-pyrrolo[1,2-α][1,4]benzodiazepine derivatives” (Janssen Pharmaceutica NV, priority 2010, dated 2017).
# Where two headings read alike, the source gives them in different places.
# Assays:
# [1] = test system: Sporothrix schenkii B62482; test: Antifungal activity in vitro (resazurin susceptibility screen), Inf. A; assay type: cell-based; details: Sporothrix, B62482, Sporothrix schenkii B62482; 27 °C, 4 days, resa time 24 hours
# Procedure, shortened: (§1)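 RPMI-1640/2% glucose/MOPS pH 7.0; 10^3 cfu per well; top conc 64 μM, 2- or 4-fold dilutions from DMSO. Yeasts 24 h 37° C, dermatophytes ≥1 wk 27° C. Resazurin 0.005% added, fluorescence ex 550/em 590 nm vs untreated growth and medium-only controls.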
# [2] = test system: Microsporum canis B68128; test: Antifungal activity in vitro (resazurin susceptibility screen), Inf. B; assay type: cell-based; details: Microsporum canis, B68128, Microsporum canis B68128; 27 °C, 9 days, resa time 24 hours
# Procedure, shortened: as §1
# [3] = test system: Trichophyton rubrum B68183; test: Antifungal activity in vitro (resazurin susceptibility screen), Inf. C; assay type: cell-based; details: Trichophyton rubrum, B68183, Trichophyton rubrum B68183; 27 °C, 7 days, resa time 24 hours
# Procedure, shortened: as §1
# [4] = test system: Candida parapsilosis B66126; test: Antifungal activity in vitro (resazurin susceptibility screen), Inf. D; assay type: cell-based; details: Lodderomyces parapsilosis, B66126, Candida parapsilosis B66126; 37 °C, 24 hours, resa time 4 hours
# Procedure, shortened: as §1
# [5] = test system: Aspergillus fumigatus B42928; test: Antifungal activity in vitro (resazurin susceptibility screen), Inf. E; assay type: cell-based; details: Aspergillus fumigatus, B42928, Aspergillus fumigatus B42928; 27 °C, 48 hours, resa time 17 hours
# Procedure, shortened: as §1
# [6] = test system: Cryptococcus neoformans B66663; test: Antifungal activity in vitro (resazurin susceptibility screen), Inf. F; assay type: cell-based; details: Cryptococcus neoformans, B66663, Cryptococcus neoformans B66663; 37 °C, 24 hours, resa time 4 hours
# Procedure, shortened: as §1
# [7] = test system: Trichophyton mentagrophytes B70554; test: Antifungal activity in vitro (resazurin susceptibility screen), Inf. G; assay type: cell-based; details: Trichophyton mentagrophytes, B70554, Trichophyton mentagrophytes B70554; 27 °C, 7 days, resa time 24 hours
# Procedure, shortened: as §1
# [8] = test system: Scedosporium apiospermum IHEM3817; test: Antifungal activity in vitro (resazurin susceptibility screen), Inf. H; assay type: cell-based; details: Scedosporium apiospermum, IHEM3817, Scedosporium apiospermum IHEM3817; 37 °C, 48 hours, resa time 17 hours
# Procedure, shortened: as §1
# [9] = test system: Scedosporium prolificans IHEM21157; test: Antifungal activity in vitro (resazurin susceptibility screen), Inf. I; assay type: cell-based; details: Lomentospora prolificans, 37 °C, 48 hours, resa time 17 hours
# Procedure, shortened: as §1
# [10] = test system: Rhizopus oryzae IHEM5223; test: Antifungal activity in vitro (resazurin susceptibility screen), Inf. J; assay type: cell-based; details: Rhizopus arrhizus, 37 °C, 24 hours, resa time 6 hours
# Procedure, shortened: as §1
# [11] = test system: Rhizomucor miehei IHEM13391; test: Antifungal activity in vitro (resazurin susceptibility screen), Inf. K; assay type: cell-based; details: Rhizomucor miehei, IHEM13391, Rhizomucor miehei IHEM13391; 37 °C, 48 hours, resa time 17 hours
# Procedure, shortened: as §1
# [12] = test system: Mucor circinelloides IHEM21105; test: Antifungal activity in vitro (resazurin susceptibility screen), Inf. L; assay type: cell-based; details: 27 °C, 48 hours, resa time 17 hours
# Procedure, shortened: as §1
# [13] = in vivo; design: species or system mice; details: mouse, po
# Method: (§2) Three animals (mean weight 20±7 g for mice and 275±20 for Guinea pigs) were used per dose route, time point and formulation.
# (§3) For the oral (PO) solution formulation, compound was dissolved in a 20% hydroxypropyl-β-cyclodextrin (HP-β-CD) solution at a final concentration of 1 mg/ml. HCl was added to facilitate dissolution. After dissolution, the pH was brought up to 3.7 with NaOH. Mannitol was added to make the solution isotonic. For the PO suspension formulation, compound was suspended in 0.5% methocel at a final concentration of 1 mg/ml. The formulations were stored at room temperature, protected from light and analysed quantitatively with LC-MS/MS on the day of preparation. Stability of the formulations was checked on the day of dosing.
# (§4) The animals were dosed orally by gastric intubation at 10 ml/kg to obtain a final dose 10 mg/kg. Three dosed animals were sacrificed for blood sampling at 15 and 30 min, 1, 2, 3, 4, 6, 8 and 24 h after PO dose administration as a solution and at 30 min, 1, 2, 4, 6, 8 and 24 h after PO dose administration as a suspension.
# (§5) Blood was collected by multiple sampling from a tail vein into Multivette® 600 K3E tubes (Sarstedt). Samples were placed immediately at approximately 4° C. and plasma was obtained following centrifugation at 4° C. for 10 minutes at approximately 1900×g. All samples were shielded from daylight and stored at ≦−18° C. prior to analysis.
# (§6) Plasma samples were analysed for dosed compound using a qualified research LC-MS/MS method. The key analytical performance (linearity, upper and lower limit of quantification, accuracy and precision) of the method was reported together with the plasma concentrations.
# (§7) A limited pharmacokinetic analysis was performed using WinNonlin™ Professional (Version 5.2.1). A non-compartmental analysis using the lin/log trapezoidal rule with lin/log interpolation was used for all data.
# [14] = In vivo pharmacokinetic determinations (bioavailability) in guinea pigs; details: guinea pig
# Method: as §2, §3, §4, §5, §6, §7
# [15] = test system: Microsporum canis (strain B68128); test: Test D.4.1: activity against M. canis in guinea-pigs after oral treatment for 7 consecutive days; assay type: in vivo; design: key to semi-quantitative lesion score (mean): lesion score 0–3.5 by severity and size of lesion; details: oral 10 mg/kg once daily for 7 days
# Method: The animals used in the tests described below were female Guinea pigs (Duncan-Hartley, Charles River, 200 g). These animals were kept in groups of 2 or 3 in cages of 56×33×20 cm^3. Food pellets (Carfil Quality) and water were available ad libitum in addition to a small daily amount of hay. Standard husbandry conditions were adopted: room temperature: 22° C., humidity level: 60% and a day-night cycle of 12 h.
# For the preparation of inoculums, Microsporum canis (strain B68128) was grown on Sabouraud Dextrose Agar (SDA) plates for at least one week (7-10 days) before infection (27° C.). On the day of infection, spores were harvested by adding 4-5 ml sterile water on the plate and suspending the infectious material with a bend Pasteur pipette. From the recollected fluid, 10 μl was added to a KOVA counting chamber for determination of the number of spores in 1 square (average of several squares). If needed, additional dilutions (10× or 100×) were prepared. The average number of spores in one square×dilution×90.000=cfu/ml. An inoculum of 1×10^7 cfu/ml was prepared in a honey-water mixture (50%-50%).
# In the tests described below, semi-quantitative lesion scores were given based on different clinical parameters. Scores between 0 and 3.5 were assigned based on the severity and size of the lesion. The criteria are listed in detail in Table 6.
# The dorsum of the guinea pigs was shaved and further depilated for 3 minutes with Veet® creme before scarification with a steel brush. An inoculum of 10^6 cfu in 150 μl (75 mQ+75 μl honey) was applied to the wound using a micropipette with disposable tips. The animal was kept immobilized until the inoculum had completely dried. […]
# vehicle: methocel 0.5%, Tween 80® (polysorbate 80), demineralised water reference compound: itraconazole at 6.25 mg/ml test compounds: prepared at 25 mg/ml, subsequently further diluted
# Oral treatment (gavage 0.16 ml/100 g once daily) was started about 2 hours before infection and continued once daily for 7 consecutive days. The animals were weighed after 3 days of treatment to adjust for the dose.
# Developments of lesions were evaluated following the semi-quantitative lesion scoring system (see Table 6) on days 3, 5, 7, 10, 12, 14, 17 and 20. The results are show in Table 7 (“DPI” means days post infection). Reported values in Table 7 are mean values.
# [16] = Solubility in buffer systems A-G; assay type: physicochemical; details: thermodynamic from solid
# Method: A magnetic stirring bar was added to the mixtures. […] If the compound was dissolved, the result was reported (twice the weighed amount of compound/ml). If the compound was not dissolved, 0.5 ml of extra solvent was added to the suspension. […] If the compound was dissolved, the result was reported (weighed amount of compound/ml). If the compound was not dissolved, 1 ml of extra solvent is pipetted into the suspension. The mixtures were shaken (Edmund Buhler SM25 175 SPM) at ambient temperature overnight and inspected afterwards. If the compound was dissolved, the result was reported (half the weighed amount of compound/ml). If the compound was not dissolved, the suspension was filtered over a filter disc. An aliquot of the filtrate was diluted with an appropriate solvent (0.1 N HCl/acetonitrile 1/1) and submitted for concentration measurement (mg/ml) using a generic UPLC method.
# [17] = pH 4, aqueous with cosolvent or surfactant or cyclodextrin, buffer pH 4, containing 10% (w/v) of HPBCD, read-out: Solubility, buffer system C
# [18] = pH 7.4, aqueous with cosolvent or surfactant or cyclodextrin, buffer pH 7.4, containing 10% (w/v) of HPBCD, read-out: Solubility, buffer system F
# [19] = pH 7.4, aqueous with cosolvent or surfactant or cyclodextrin, buffer pH 7.4, containing 20% (w/v) of HPBCD, read-out: Solubility, buffer system G
structure (smiles),measurement,setting,value
"CC(F)(F)c1ccc(C2=NCc3c(Cl)cc(Cl)cc3-n3cccc32)cc1 [Compound 9, 7,9-dichloro-4-[4-(1,1-difluoroethyl)phenyl]-6H-pyrrolo[1,2-a][1,4]benzodiazepine]",IC50,[1],11 µM
same,IC50,[2],3.98 µM
same,IC50,[3],1 µM
same,IC50,[4],> 64.6 µM
same,IC50,[5],7.94 µM
same,IC50,[6],0.871 µM
same,IC50,[7],12.9 µM
same,IC50,[8],9.55 µM
same,IC50,[9],6.03 µM
same,IC50,[10],> 64.6 µM
same,IC50,[11],> 64.6 µM
same,IC50,[12],> 64.6 µM
same,bioavailability,[13],100%
same,Bioavailability in guinea pigs (result in words),[14],Bioavailability in guinea pigs: not soluble
"CN(C/C=C/C#CC(C)(C)C)Cc1cccc2ccccc12 [Terbinafine, reference compound]",bioavailability,[13]; 10 mg/kg,19%
same,bioavailability,"[14]; po, 10 mg/kg",14%
same,semi-quantitative lesion score (mean),[15]; 3 DPI,0
same,semi-quantitative lesion score (mean),[15]; 5 DPI,0
same,semi-quantitative lesion score (mean),[15]; 7 DPI,0.08
same,semi-quantitative lesion score (mean),[15]; 10 DPI,0.33
same,semi-quantitative lesion score (mean),[15]; 12 DPI,0.80
same,semi-quantitative lesion score (mean),[15]; 14 DPI,0.75
same,semi-quantitative lesion score (mean),[15]; 17 DPI,0.50
same,semi-quantitative lesion score (mean),[15]; 20 DPI,0.42
CCc1ccc(C2=NCc3ccc(Cl)cc3-n3cccc32)cc1 [drawing 29],solubility,"[16]; pH 4, aqueous buffer, buffer pH 4, ambient temperature, read-out: Solubility, buffer system B",< 1 µg/mL
same,solubility,[16]; [17],48 µg/mL
same,solubility,"[16]; pH 4, aqueous with cosolvent or surfactant or cyclodextrin, buffer pH 4, containing 20% (w/v) of HPBCD, read-out: Solubility, buffer system D",1490 µg/mL
same,solubility,"[16]; pH 7.4, aqueous buffer, buffer pH 7.4, ambient temperature, read-out: Solubility, buffer system E",< 1 µg/mL
same,solubility,[16]; [18],35 µg/mL
same,solubility,[16]; [19],110 µg/mL
same,solubility,"[16]; simulated gastric fluid, 0.01 N HCl, ambient temperature, read-out: Solubility, buffer system A",1880 µg/mL
CC(F)(F)c1ccc(C2=NCc3ccc(Cl)cc3-n3cccc32)cc1 [drawing 30],solubility,[16]; [17],1230 µg/mL
same,solubility,[16]; [18],191 µg/mL
same,solubility,[16]; [19],603 µg/mL
same,solubility,"[16]; phosphate-citrate (McIlvaine) buffer pH 4, pH 4, aqueous buffer, buffer pH 4, ambient temperature, read-out: Solubility, buffer system B",87 µg/mL
same,solubility,"[16]; phosphate-citrate (McIlvaine) buffer pH 7.4, pH 7.4, aqueous buffer, buffer pH 7.4, ambient temperature, read-out: Solubility, buffer system E",< 1 µg/mL
"CCc1ccc(C2=NCc3ccc(Cl)cc3-n3cccc32)cc1 [Compound 23 of WO02/34752, reference compound]",bioavailability,"[14]; PO 40 mg/kg, IV 2.5 mg/kg, read-out: Bioavailability in guinea pigs",7%
"CCc1ccc(C2=NCc3c(Cl)cccc3-n3cccc32)cc1 [Compound 22 of WO02/34752, reference compound]",bioavailability,[13]; 10 mg/kg,11%
same,bioavailability,[14]; po,2.7%
"CC(F)(F)c1ccc(C2=NCc3ccc(Cl)cc3-n3cccc32)cc1 [Compound 17, 9-chloro-4-[4-(1,1-difluoroethyl)phenyl]-6H-pyrrolo[1,2-a][1,4]benzodiazepine]",IC50,[1],5.62 µM
same,IC50,[2],2.63 µM
same,IC50,[3],0.457 µM
same,IC50,[4],2.45 µM
same,IC50,[5],0.55 µM
same,IC50,[6],0.324 µM
same,IC50,[7],1.62 µM
same,IC50,[8],> 64.6 µM
same,IC50,[9],0.759 µM
same,IC50,[10],8.32 µM
same,IC50,[11],> 64.6 µM
same,IC50,[12],> 64.6 µM
same,bioavailability,"[14]; po, 10 mg/kg",70%
same,melting point,,115.3 °C (dec.)
